Patent US8715681B2, “Minimal motifs of linear B-cell epitopes in L1 protein from human papillomavirus type 58 and their applications” (Hengsun Pharmaceutical Technology Co. Ltd., priority 2012, dated 2014)
Ends that are not written are not given here.

System: rabbit serum raised against r-L1C
Assay: Epitope mapping of 18-mer peptide-GST188 fusion proteins by Western blotting with anti-r-L1C rabbit serum
Format: binding
Details: 18-mer peptides P25-P60 fused with GST188
Text: 1. The clone of HPV 58 genome was purchased from commercial resource (20). With regular PCR method, the N terminal and C terminal of full-length HPV58-L1 cDNA were amplified from the HPV 58 genome we purchased and then were reconstructed into pRSET-C fusion expression plasmid. The expressed r-L1N^36-233 and r-L1C^226-524 proteins were purified from E. coli, and finally used as antigen to immunize three New Zealand white rabbits to prepare rabbit antisera against r-L1N^36-233 or r-L1C^226-524, respectively.
2. Previously we have constructed a fusion expression plasmid pXXGST-1 specially used for 8/18-mer short peptide biosynthesis in epitope mapping. In this plasmid, the macromolecule protein carrier was a truncated glutathione S-transferases (GST) with 188 residues (GST188) (China Patent NO.: 200710173305.2; 18). DNA recombinant technology was employed to express two sets of 18-mer peptides overlapping each other by 10 residues covering the domains of L1N^36-233 and L1C^226-524 fused with GST188, respectively. Specifically the DNA fragments encoding different short peptide were inserted into pXXGST-1 plasmid after annealing of chemically synthesized plus and minus DNA strands to double-strand DNA. […]

Which “reactivity in Western blotting” value does the source give for “P27: biosynthetic 18-mer peptide of HPV58 L1 fused with GST188; contains DVPID (NKSDVPIDICNSTCKYPD; not fully specified (N-terminus); cysteine pairing not given here)” here?
Its value is “reactive”.
